From patent US8853215B2, “Derivatives of N-acyl-N′-phenylpiperazine useful (inter alia) for the prophylaxis or treatment of diabetes” (Takeda Pharmaceutical Company Limited, priority 2009, dated 2014)

What was measured:
[1] = molecular target: human RBP4 (Homo sapiens (Human), UniProt P02753); assay: Binding assay by Retinol-RBP4-TTR ELISA; details: for IC50: retinol 50 nM, His-tagged human RBP4, biotinylated human TTR, read-out: human RBP4 binding inhibitory activity (IC50 nM)
Method: The action of the compound of the present invention to inhibit binding of RBP4 and retinol and TTR was evaluated using the Retinol-RBP4-TTR ELISA system shown below.
1F: Binding Assay by Retinol-RBP4-TTR ELISA
This ELISA system detects a complex of RBP4 and TTR based on a retinol-dependent binding of RBP4 to TTR.
His-tagged human RBP4 used was prepared in the above-mentioned 1C.
Biotinylate human TTR used was prepared in the above-mentioned 1E.
Streptavidin (20 μl) (10 μg/ml Streptavidin type II (Wako Pure Chemical Industries, Ltd.), 10 mM Tris-HCl (pH 7.5), 10 mM NaCl) was added to a 384 well black plate (Nunc MaxiSorp, Thermo Fisher Scientific Inc.), and the plate was subjected to centrifugation (1000 rpm, 1 min) and coated overnight at 4° C. The plate was washed twice with PBST (PBS, 0.05% Tween 20, 100 μl/well) and blocked with 25% Block Ace (Snow Brand Milk Products Co., Ltd., PBS, 100 μl/well). The plate was subjected to centrifugation (1000 rpm, 1 min) and incubated at room temperature for 4 hr or overnight at 4° C. The plate was washed twice with PBST (PBS, 0.05% Tween 20, 100 μl/well), and biotinylate human TTR (stock solution concentration 1.0 mg/ml) diluted 750-fold with PBST was added at 20 μl/well. The plate was subjected to centrifugation (1000 rpm, 1 min) and stood still at room temperature for 1.5 hr or overnight at 4° C. The plate was washed 3 times with PBST (100 μl/well), and His-tagged human RBP4 (stock solution concentration 0.96 mg/ml) diluted 4000-fold with a reaction buffer (50 mM Tris-HCl, 150 mM NaCl, 0.005% Tween 20, 1 mM DTT, 0.1% BSA) was added at 10 μl/well. The dilution series (8 doses from 10 mM, 200-fold concentration) of the compound was prepared with DMSO, and 1 μl of each was added to a reaction buffer (200 μl) containing retinol (50 nM) (Sigma-Aldrich Co.). A reaction buffer (200 μl) containing retinol and added with DMSO was used as a positive control, and reaction buffer (200 μl) free of retinol and added with DMSO was used as a negative control. Mixed solutions of retinol and the compound were added to the plate at 15 μl/well. The plate was stirred in a platemixer subjected to centrifugation (1000 rpm, 1 min) and reacted at room temperature for 2 hr. A 35% Block Ace solution diluted with the reaction buffer was added at 10 μl/well, centrifuged (1000 rpm, 1 min) and reacted at room temperature for 30 min. The plate was washed 3 times with PBST (100 μl/well) and SuperSignal ELISA Femto Maximum Sensitivity Substrate reagent (PIERCE, Thermo Fisher Scientific Inc.) was added at 30 μl/well, and the luminescence was measured by a platereader (Wallac).
The binding inhibitory activity of the compound was determined by 100×(positive control value-test compound value)/(positive control value-negative control value). The binding activity (IC50) was calculated from the binding inhibitory rate at each compound concentration using a graph drawing software, GraphPad Prism (GraphPad Software Inc.).

[2] = tested on: Zucker fatty rats; assay: Repeated drug administration test in Zucker fatty rats, plasma glucose and glycosylated hemoglobin; type: in vivo, Zucker fatty rats (fa/fa)
Method: The effect of the compound of the present invention on plasma levels of glucose and glycosylated hemoglobin were evaluated using the animal model shown below.
(§1) Male Zucker fatty rats (fa/fa) and their lean littermates (Fa/?) were bred in Takeda Pharmaceutical Company Limited and maintained on normal diet (CE2, CLAE Japan, Inc.) and tap water. Animals were housed in a temperature-controlled room adjusted to a 12-hour light/12-hour dark cycle beginning at 7:00 and 19:00, respectively. All procedures were conducted according to the experimental animal care use committee of Takeda Pharmaceutical Company Limited.
From 8 weeks of age, Zucker fatty rats were maintained on a high fat diet (D06110702, 20 kCal % fat) (LSG Corporation, Japan). A compound was suspended in 0.5% (w/v) methylcellulose in water and given orally to rats at a volume of 5 mL/kg of body weight. After 4 days of pre-administration of 0.5% (w/v) methylcellulose, rats were divided based on body weight, glycosylated hemoglobin, and plasma glucose (PG) (n=6 each). Drug administration was started at 15 weeks of age and a drug (10 mg/kg) was administered once a day for 28 days.
Before and 28 days after the administration, blood samples were obtained from tail vein with sodium heparin as an anticoagulant, followed by plasma separation by centrifugation. Plasma glucose (PG) levels were measured enzymatically by an Autoanalyzer 7180 (Hitachi, Japan). Glycosylated hemoglobin levels were analyzed by a high performance liquid chromatography-based method using an automated analyzer HLC-723 or HLC-723 G7 (Tosoh, Japan). The changes in glycosylated hemoglobin were calculated by subtracting the initial value from final value.

[3] = molecular target: RBP4 (Rattus norvegicus (Rat), UniProt P04916); assay: Single administration test in Wistar fatty rats, plasma RBP4 by ELISA; type: in vivo; details: male Wistar fatty rats, 10 mg/kg oral single dose, mean±SD; for RBP4 (% of initial/Control) 0 hr: 0 hr (just before the administration); for RBP4 (% of initial/Control) 4 hr: 4 hr after administration; for RBP4 (% of initial/Control) 7 hr: 7 hr after administration; for RBP4 (% of initial/Control) 24 hr: 24 hr after administration
Method: The action of the compounds of the present invention to lower plasma RBP4 level was evaluated using the animal model shown below.
as §1, with “Wistar” for “Zucker”, “(fa/fa)” for “(fa/fa) and their lean littermates (Fa/?)”, “Company.” for “Company Limited.”
(§2) Male 13-43-week-old Wistar fatty rats were divided into groups randomly. Compounds were suspended in 0.5% (w/v) methylcellulose in water and given orally to Wistar fatty rats at a dose of 10 mg/10 mL/kg of body weight (3-5 rats per group). Blood samples were obtained from tail vein with sodium heparin as an anticoagulant at time 0 hr (just before the administration), 4 hr, 7 hr, and 24 hr after the administration, followed by plasma separation by centrifugation. Plasma RBP4 levels were measured by enzyme-linked immunosorbent assay described in the following section.
(§3) Plasma samples were analyzed in duplicate for RBP4 by an enzyme-linked immunosorbent assay. Mouse recombinant RBP4 (Takeda Pharmaceutical Company Limited) was used as standards, and the assay range was 0.313-20 ng/ml. Samples were diluted 10,000-fold with phosphate-buffered saline (PBS) (Sigma) containing 10% (w/v) BlockAce (Dainippon Sumitomo Pharma Co., Ltd). Rabbit anti-RBP4 polyclonal antibody (100 μL/well of 50 μg/mL, Hokudo Co, Ltd) was incubated in a 96-well plate (Nalge Nunc International K.K.) for overnight at 4° C. Subsequently, the plates were washed with PBS-T (Wako Pure Chemical Industries, Ltd.) and blocked with PBS containing 25% BlockAce for 1 hr at room temperature. After another washing with PBS-T, samples and standards were applied to the well, and the plates were incubated for 2 hr at room temperature. After a washing the wells, peroxidase-labeled (Dojindo Laboratories) anti-RBP4 (100 μL/well) was added to the wells, and then the plates were incubated for 1 hr at room temperature. After a final washing with PBS-T, substrate solution 3,3,5,5-tetramethylbenzidine (Sigma) was added to the wells, and the plates were placed in the dark for 5-20 min at room temperature. The reaction was stopped with 0.5 M sulphuric acid and the optical density was measured with a spectrophotometer at 450 nm. The changes in plasma RBP4 levels were expressed as % of initial/Control. All data are presented as mean±SD.

[4] = molecular target: RBP4 (Mus musculus (Mouse), UniProt Q00724); assay: Single administration test in mice, plasma RBP4 by ELISA; type: in vivo; details: male C57BL/6J or ICR mice, 50 mg/kg oral single dose, mean±SD
Method: The action of the compounds of the present invention to reduce plasma RBP4 level was evaluated using the animal model shown below.
Male C57BL/6J and ICR mice were purchased from Charles River (Japan) and maintained on a normal diet (CE2, CLAE Japan, Inc.) and tap water. Animals were housed in a temperature-controlled room adjusted to a 12-hour light/12-hour dark cycle beginning at 7:00 and 19:00, respectively. All procedures were conducted according to the experimental animal care use committee of Takeda Pharmaceutical Company.
as §2, with “Male 6-12-week-old C57BL/6J or ICR mice were housed individually and fed CE2 for 4-6 days. After acclimatization, mice” for “Male 13-43-week-old Wistar fatty rats”, “groups based on their body weight.” for “groups randomly.”, “to mice” for “to Wistar fatty rats”, “of 50” for “of 10”, “weight (three to five mice” for “weight (3-5 rats”, “from orbital” for “from tail”
as §3, with “Company)” for “Company Limited)”

[5] = Zucker fatty rats, 10 mg/kg, 28 days repeated administration

SMILES: CC(C)(C)c1ccccc1N1CCN(C(=O)NCC(=O)O)CC1 [Example 6, N-{[4-(2-tert-Butylphenyl)piperazin-1-yl]carbonyl}glycine]
- IC50 [1]: 540 nM
- Glycosylated hemoglobin (%) ([2]; Zucker fatty rats on high fat diet, 10 mg/kg oral once a day for 28 days, change = final minus initial value, mean±SD): 0.95 ± 0.67%
- PG (% of initial/Vehicle) ([2]; Zucker fatty rats on high fat diet, 10 mg/kg oral once a day for 28 days, plasma glucose, mean±SD): 70.0 ± 19.7 % of initial/Vehicle
- effect on PG (in words) [2, 5]: decreased PG significantly
- effect on glycosylated hemoglobin (in words) [2, 5]: tended to decrease glycosylated hemoglobin (not significant)
- RBP4 (% of initial/Control) 0 hr [3]: 100 ± 14.1 % of initial/Control
- RBP4 (% of initial/Control) 4 hr [3]: 36.2 ± 5.0 % of initial/Control
- RBP4 (% of initial/Control) 7 hr [3]: 27.4 ± 5.9 % of initial/Control
- RBP4 (% of initial/Control) 24 hr [3]: 104.5 ± 4.4 % of initial/Control

SMILES: CC(C)(C)c1ccccc1N1CCN(C(=O)CC(=O)O)CC1 [Example 9, 3-[4-(2-tert-Butylphenyl)piperazin-1-yl]-3-oxopropanoic acid]
- IC50 [1]: 54 nM
- RBP4 (% of initial/Control) 0 hr [3]: 100.0 ± 8.5 % of initial/Control
- RBP4 (% of initial/Control) 4 hr [3]: 49.6 ± 1.3 % of initial/Control
- RBP4 (% of initial/Control) 7 hr [3]: 49.2 ± 1.9 % of initial/Control
- RBP4 (% of initial/Control) 24 hr [3]: 114.3 ± 6.0 % of initial/Control

SMILES: CC(C)(C)c1ccccc1N1CCN(C(=O)CCC(=O)NS(C)(=O)=O)CC1 [Example 55, 4-(4-(2-tert-Butylphenyl)piperazin-1-yl)-N-(methylsulfonyl)-4-oxobutanamide]
- IC50 [1]: 64 nM
- RBP4 (% of initial/Control) 0 hr [3]: 100.0 ± 5.3 % of initial/Control
- RBP4 (% of initial/Control) 4 hr [3]: 36.8 ± 5.8 % of initial/Control
- RBP4 (% of initial/Control) 7 hr [3]: 31.6 ± 7.7 % of initial/Control
- RBP4 (% of initial/Control) 24 hr [3]: 54.4 ± 14.3 % of initial/Control

SMILES: CC(C)(C)c1ccccc1N1CCN(C(=O)Cc2nnn[nH]2)CC1 [Example 58, 1-(4-(2-tert-Butylphenyl)piperazin-1-yl)-2-(1H-tetrazol-5-yl)ethanone]
- IC50 [1]: 300 nM
- RBP4 (% of initial/Control) 0 hr [3]: 100.0 ± 8.7 % of initial/Control
- RBP4 (% of initial/Control) 4 hr [3]: 76.2 ± 11 % of initial/Control
- RBP4 (% of initial/Control) 7 hr [3]: 89.1 ± 15.4 % of initial/Control
- RBP4 (% of initial/Control) 24 hr [3]: 97.9 ± 10.4 % of initial/Control

SMILES: CC(C)(C)c1ccccc1N1CCN(C(=O)c2cc(OCC(=O)O)no2)CC1 [Example 216, [(5-{[4-(2-tert-Butylphenyl)piperazin-1-yl]carbonyl}isoxazol-3-yl)oxy]acetic acid]
- inhibition at 10 µM ([1]; at 10 μM compound, read-out: human RBP4 binding inhibitory activity(% at 10 μM)): 100%
- RBP4 (% of initial/Control) 0 hr ([4]; 0 hr (just before the administration)): 100.0 ± 16.6 % of initial/Control
- RBP4 (% of initial/Control) 4 hr ([4]; 4 hr after administration): 43.4 ± 4.7 % of initial/Control
- RBP4 (% of initial/Control) 7 hr ([4]; 7 hr after administration): 36.9 ± 1.0 % of initial/Control
- RBP4 (% of initial/Control) 24 hr ([4]; 24 hr after administration): 66.4 ± 28.1 % of initial/Control
